Experimental data published in patent US20080119439A1, “Treatment and prevention of intestinal fibrosis” (Bayer Schering Pharma Aktiengesellschaft, priority 2006, published 2008).

Assays:
[1] = system: chronic model of colon inflammation (TNBS-induced chronic colitis); experiment: Study 1: chronic TNBS colitis, lipoxin A4 analog given daily together with TNBS; type: in vivo, BALB/c mice
Description: (§1) A model of chronic inflammation induced by 7 week administration of 2,4,6-trinitrobenzenesulfonic acid (TNBS) in escalating manner was used in these studies. This model results in inflammation-driven fibrosis that associates with significant increase in intestinal content of collagen.
(§2) The induction of chronic colitis was performed according the protocol proposed by Lawrance et al, Gastroenterology (2003) 125:1750-1761. Six- to eight-week-old female mice of the BALB/c strain were obtained from Charles River (Breeding Laboratories, Monza, Italy).
In a first in vivo experiment, BALB/c mice of the control group (n=7) received weekly 0.1 mL of saline solution by intracolonic injections. Mice of the TNBS group (n=15) were treated for 8 weeks with escalating doses (0.5 to 1.25 mg, with a 0.25 mg increase every two weeks) of TNBS in 30% ethanol by intracolonic injections at weekly intervals. Mice of TNBS+lipoxin A4 analog group (n=15) received the same weekly TNBS administration as the TNBS-only group plus 1 mg/kg of the lipoxin A4 analog daily by intragastric administration. Mice were examined weekly for weight loss, diarrhea and rectal bleeding. Two days after the last administration of TNBS, mice were killed and colons were removed and examined. The macroscopic appearance was analyzed considering the presence of indurations, edema, thickness and evidence of mucosal hemorrhage.
Neutrophil infiltration in the colon was monitored by measuring MPO activity using a spectrophotometric assay with trimethylbenzidine (TMB) as a substrate according to a previously published method. Activity is expressed as U per mg protein.
For histologic examination, sections of the proximal, middle and distal colon from each animal were fixed in 10% formalin, embedded in paraffin, sectioned, and stained with haematoxylin and eosin (H&E) or Sirius Red. For the latter, sections were incubated for 30 minutes in 0.1% Sirius Red F3B containing saturated picric acid and 0.1% fast green. After rising twice with distilled water, sections were briefly dehydrated with 70% ethanol.
Images from colon sections were acquired with a BX60 microscope (Olympus Co., Rome, Italy), digitalized using a SPOT-2 camera (Diagnostic Instruments Inc., Sterling Heights, Mich.) with a resolution of 1315×1033 pixels and analyzed using a computerized image analysis system (Image Acquisition System Ver.005, Delta Sistemi, Rome, Italy).
Sections from the colon of each animal were examined in a blinded fashion. The degree of the inflammation and fibrosis was scored accordingly with an established method (Lawrance et al., supra; Neurath et al., J. Exp. Med. (1995) 182:1281-1290). Briefly, inflammation was scored as absent, mild, moderate or severe depending on the density and extent of inflammatory infiltrates, loss of goblet cells, and bowel wall thickening. Also, the fibrosis was scored as absent, mild, moderate or severe on the basis of the density and extent of the Sirius red-positive connective tissue staining, compared with the water-control mice.
Quantification of the expression of mouse gene in colon tissues and intestinal fibroblasts was performed by quantitative real-time polymerase chain reaction (RT-PCR) (Heid C A 1996), using sense and antisense primers indicated in Table 1. All PCR primers were designed using PRIMER3-OUTPUT software using published sequence data from the NCBI database. Total RNA was isolated (TRIzol reagent, Invitrogen srl, Milan, Italy) from specimens taken from distal colons and intestinal fibroblasts. One microgram of purified RNA was treated with Dnasel for 15 minutes at room temperature, followed by incubation at 95° C. for 5 minutes in the presence of 2.5 mmol/L EDTA. The RNA was reverse-transcribed with Superscript III (Invitrogen srl, Milan, Italy) in 20 μL reaction volume using random primers. […]

[2] = system: chronic model of colon inflammation (established TNBS colitis); experiment: Study 2: established TNBS colitis, lipoxin A4 analog dosed orally after the third week of TNBS; type: in vivo, BALB/c mice; conditions: 1 mg/kg orally, starting on week 3 after TNBS administration
Description: as §1, §2
To test the influence of lipoxin analogs in the inflammatory and fibrotic response in animals with established colitis, in a second in vivo study lipoxin A4 analog (1 mg/kg) was dosed orally starting after the third week of administration of TNBS (same protocol as described above). Mice were examined weekly for weight loss, diarrhea and rectal bleeding. Two days after the last administration of TNBS, mice were killed and colons were removed and examined. The macroscopic appearance was analyzed considering the presence of indurations, edema, thickness and evidence of mucosal hemorrhage.
Neutrophil infiltration in the colon was monitored by measuring MPO activity using a spectrophotometric assay with trimethylbenzidine (TMB) as a substrate according to a previously published method. Activity is expressed as U per mg protein. […]

[3] = 1 mg/kg daily intragastric, seven weeks, quantitative RT-PCR

SMILES: O=C([O-])COC[C@H](O)[C@H](O)/C=C/C=C/C#C/C=C/[C@H](O)COc1ccc(F)cc1.[Na+] [lipoxin A4 analog, sodium 2-((2S,3R,4E,6E,10E,12S)-13-(4-fluorophenoxy)-2,3,12-trihydroxytrideca-4,6,10-trien-8-ynyloxy)acetate]
- colon fibrosis development, morphometric analysis of Sirius red-stained colon ([1]; 1 mg/kg daily intragastric, administered for seven weeks, vs TNBS alone): significantly attenuated
- colon expression of TGFβ mRNA (marker of colon fibrosis) [1, 3]: significantly attenuated
- colon expression of fibronectin mRNA (marker of colon fibrosis) [1, 3]: significantly attenuated
- colon expression of α-SMA mRNA (marker of colon fibrosis) [1, 3]: significantly attenuated
- colon expression of αI collagen mRNA (marker of colon fibrosis) [1, 3]: significantly attenuated
- colon inflammation ([1]; administered orally): attenuated
- TGBβ protein in colon ([1]; in comparison to mice administered TNBS alone): reduced
- efficacy when administered in a therapeutic manner (inflammatory and fibrotic response) [2]: effective
